Measured values: US20110123466A1, “PHARMACEUTICAL AND/OR COSMETIC COMPOSITION CONTAINING AN ACTIVE PRINCIPLE ACTIVATOR OF CYTOCHROME C” (SOCIETE D'EXTRACTION DES PRINCIPES ACTIFS S.A (ISP …, priority 2007, published 2011)
Ends that are not written are not given here.

Legend:
Dermal fibroblasts = assay: Synthesis of intracellular ATP (ATP Bioluminescence Assay Kit HS II); type: cell-based; conditions: 1% solution of a 50 ppm peptide solution, compared to untreated cells
Experimental: Protocol: This study was conducted using an ATP Bioluminescence Assay Kit HS II (Roche Applied Science). Dermal fibroblasts were treated with a 1% solution of a 50 ppm solution containing the SEQ ID No. 2 peptide, representative of the peptide family according to the invention, for a period of 1 to 3 hours. At the end of incubation, the tubes were rinsed with 2 ml of cold PBS before adding 250 μl of a lysis buffer provided in the kit. The cells of each tubes were then scraped up and collected in 14-ml tubes. Each tube was rinsed with 2×500 μl of cold PBS and the whole was collected again in the respective tubes. […] The ATP measurement was performed on these samples: 50 μl of this dilution was placed in a Luma cuvette and […]. After 10 seconds, the luminescence reading was begun. The values were standardized relative to the quantity of proteins for each sample. The measurements were made using the Biocounter M2010A Luma®/3M equipment.

[1] = test system: dermal fibroblast mitochondria; assay: Mitochondrial membrane potential, JC-1 marking, with or without H2O2 or UVB stress; type: cell-based, human
Experimental: The aim of this study was to determine the protective effect of the SEQ ID No. 2 peptide with respect to dermal fibroblast mitochondria subjected to an oxidative stress caused by oxygenated water (H2O2) or UVB irradiation. A marker for the membrane potential of mitochondria (JC-1) was used for this. JC-1 is a marker that emits different fluorescences depending on the level of polarization of the mitochondrial membrane.
Protocol: Human dermal fibroblasts were treated with a 1% solution of a 50-ppm SEQ ID No. 2 peptide mother-solution for 96 hours and then subjected to an oxidative stress caused by 2 mM of H2O2 for 30 min. or to UVB irradiation at 50 mJ/cm^2. Controls not treated with the peptide or H2O2 or not irradiated were performed under the same conditions. At the end of the experiment, the cells were washed, fixed, and subjected to marking with a 0.2 μg/ml solution of JC-1 (Molecular Probes®) in order to disclose the membrane potential of the mitochondria.

cytochrome oxidase = assay: Enzymatic activity of cytochrome oxidase (Cytocox 1 kit) in treated fibroblasts; type: cell-based; conditions: normal human fibroblasts, 1% solution of a 50-ppm solution, compared with untreated cells
Experimental: The aim of this study was to determine the effect of the SEQ ID No. 2 peptide on mitochondrial activity. For this, the total enzymatic (mitochondrial) activity of cytochrome oxidase was measured.
Protocol: Normal human fibroblasts were treated with a 1% solution of a 50-ppm solution containing the SEQ ID No. 2 peptide, representative of the peptide family according to the invention, for 3 hours and 24 hours. The cells were collected, rinsed, and then lysed by sonication. A first centrifuging was performed to eliminate the principal cellular debris, and the supernatant was then centrifuged again at 10,000 g for 10 minutes. The enzymatic activity was measured in the supernatant and/or in the second residue, by a biochemical method using the Cytocox 1 kit (Sigma-Aldrich), then standardized for protein content (measured with the BCA kit, Pierce).

cytochrome C = assay: Expression of cytochrome C by immunotransfer (Western Blot); type: cell-based; conditions: human dermal fibroblasts; 1% solution of a 50-ppm mother-solution; 72 hours
Experimental: The aim of this study was to determine the effect of the SEQ ID No. 2 peptide on the expression of cytochrome C. For this, the quantity of cytochrome C was evaluated by the immunotransfer (or Western Blot) technique.
Protocol: Human dermal fibroblasts were treated with a 1% solution of a 50-ppm SEQ ID No. 2 peptide mother-solution for 72 hours. The cells were then lysed and homogenized by sonication, then centrifuged for 10 minutes at 1000 g. The samples, standardized for their protein concentration (BCA measurement kit, Pierce) were subjected to electrophoresis on 4-12% bis-tris gel (Invitrogen). After electro-transfer, the membranes were incubated overnight with an anticytochrome C antibody, diluted to 1/500 (mouse monoclonal anti-cytochrome C, Tebu). A secondary antibody, coupled to the peroxidase and diluted to 1/5000 was then used (peroxidase conjugated F(ab′)2, goat antimouse, Immunotech). The chemiluminescent signal was then quantified using the Supersignal West Femto Trial kit and read in a reading chamber (MultiImage Light Cabinet, Immunotech Corporation).

- increase in enzymatic activity of cytochrome oxidase (cytochrome oxidase; 24 hours after application): 750%
- increase in enzymatic activity of cytochrome oxidase (cytochrome oxidase; after 3 hours): 150%
Substance: Tyr-Leu-Lys-Lys-Ala-NH2 (YLKKA-NH2) [SEQ ID No. 2]
- increase in the amount of intracellular ATP (Dermal fibroblasts; after 3 hours): 27%
- increase in the amount of intracellular ATP (Dermal fibroblasts; after one hour): 41%
- mitochondrial membrane potential (JC-1 red fluorescence) under stress ([1]; peptide for 96 hours, then 2 mM H2O2 for 30 min or UVB 50 mJ/cm^2): more marked red fluorescence
- mitochondrial membrane potential (JC-1 red fluorescence) ([1]; unstressed human dermal fibroblasts, 1% solution of a 50-ppm mother-solution, 96 hours): elevated membrane potential, greater than in the control cells
- expression of cytochrome C (cytochrome C): clear increase
